{"source": "patent US20040132055A1", "about": "“Recombinant chalcomycin polyketide synthase and modifying genes” (priority 2002, published 2004)", "origin": "cited, not measured here", "settings": "spectrum, in words"}
{"compound": "COC1CC(C)OC(OC2C(C)/C=C/C(=O)OC(C)C(COC3OC(C)C(O)C(OC)C3OC)C3OC3/C=C/C(=O)C(C)(O)CC2C)C1O", "note": "(stereo not shown) [Chalcomycin, chalcomycin]", "values": [{"measurement": "antimicrobial activity", "result": "broad spectrum of antimicrobial activity"}]}
